# Measurements as given in patent US9260461B2, “Water-soluble derivatives and prodrugs of acacetin and methods of making and using thereof” (Versitech Limited, priority 2014, dated 2016).
# Tests used:
# [1] = In vivo conversion of prodrugs to acacetin, HPLC of blood samples from anesthetized rats; set-up: species or system SD rats
# Procedure: Male SD rats (250-300 g) was anesthetized with phenobarbital (30 mg/kg, i.p.), and the jugular vein and femoral vein were cannulated for drug administration and blood sample collection. Tracheal cannulation was also performed for ventilation. Drug (20 mg/kg) was administrated for 30-60 min, and blood samples (˜0.2 mL) were collected before and at 5, 15, 30, 60, 90, and 120 min after drug administration using ascorbic acid and EDTA-preserved microcentrifuge tubes (1.5 mL) for HPLC (high-performance liquid chromatography) analysis of acacetin conversion.
# The samples were stored in a −80° C. freezer until HPLC analysis for acacetin content. Except for the double blanks, pentamethylquercetin (500 ng/mL) was used for concentration calibration. The analysis was carried out on a Waters HPLC system (Milford, Mass.) equipped with an Alltech column (C18, 250 mm×4.6 mm i.d., 5 μm, Grace, Deerfield, Ill.). The mobile phase consisted of 45% acetonitrile in 1% of acetic acid. The UV detector was set at a single wavelength of 260 nm. The lower limit of quantification was 50 ng/mL.
# The in vivo conversion of water-soluble prodrug A was determined in anesthetized SD rats. Prodrug A (20 mg/kg i.v.) was infused for 30-60 min, and levels of the parent compound acacetin in blood plasma were determined by HPLC analysis.
# IKACh = biological target: T1, IKACh (Rattus norvegicus, UniProt P48548+P63251); assay: Whole-cell patch-clamp, IKACh activated by 5 μM carbachol in rat atrial myocytes; format: cell-based; settings: 30 μM, representative cells
# T1 construct: from tissue; host or cells: freshly isolated left atrial myocytes of SD rats
# T1 sequence (P63251 1-501): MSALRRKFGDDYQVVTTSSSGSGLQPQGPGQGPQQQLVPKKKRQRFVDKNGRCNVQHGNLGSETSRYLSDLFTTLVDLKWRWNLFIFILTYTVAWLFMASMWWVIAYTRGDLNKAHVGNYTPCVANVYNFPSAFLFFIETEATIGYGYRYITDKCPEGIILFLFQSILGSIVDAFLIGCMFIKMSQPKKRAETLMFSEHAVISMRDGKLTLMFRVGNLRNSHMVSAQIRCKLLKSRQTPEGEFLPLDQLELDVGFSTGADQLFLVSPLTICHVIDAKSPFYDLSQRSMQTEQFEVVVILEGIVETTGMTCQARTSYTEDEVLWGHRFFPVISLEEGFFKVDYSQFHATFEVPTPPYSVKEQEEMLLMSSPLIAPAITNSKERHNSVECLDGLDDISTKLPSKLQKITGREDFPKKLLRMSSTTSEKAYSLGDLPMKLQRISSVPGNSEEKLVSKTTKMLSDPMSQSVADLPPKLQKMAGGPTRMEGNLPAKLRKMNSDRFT
# T1 sequence (P48548 1-419): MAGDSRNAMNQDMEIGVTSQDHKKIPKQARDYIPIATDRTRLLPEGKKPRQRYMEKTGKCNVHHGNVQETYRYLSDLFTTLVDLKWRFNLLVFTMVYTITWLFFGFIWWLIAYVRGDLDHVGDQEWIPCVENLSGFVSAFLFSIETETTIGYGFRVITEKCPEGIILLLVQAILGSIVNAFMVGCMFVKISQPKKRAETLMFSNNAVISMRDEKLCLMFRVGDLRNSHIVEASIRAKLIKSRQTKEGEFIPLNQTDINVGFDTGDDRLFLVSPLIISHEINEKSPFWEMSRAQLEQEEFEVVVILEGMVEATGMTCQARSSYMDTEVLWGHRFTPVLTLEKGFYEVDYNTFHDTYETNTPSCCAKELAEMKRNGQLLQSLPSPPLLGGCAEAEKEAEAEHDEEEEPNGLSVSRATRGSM
# Procedure: Rat atrial myocytes were prepared with the procedure described previously (Li et al., 2002) with a slight modification. Briefly, After SD rats (250-300 g) were anesthetized with pentobarbital (30 mg/kg i.p.), the heart was mounted to a Langendorff heart perfusion apparatus via the aorta and perfused with HEPES-buffered Tyrode's solution at 37° C. gassed with 100% 02 for 5 min. The heart was perfused with Ca^2+-free Tyrode's solution for 5-8 min, followed by Ca^2+-free Tyrode's solution containing 0.06% collagenase (Type II, Worthington Biochemical, Lakewood, N.J., USA) and 0.1% bovine serum albumin (Sigma). When the heart became softened the left atrium was excised and placed in a high-K storage medium at room temperature for 2 h, and then used for electrophysiological recording (Li et al., 2002).
# Ionic currents in HEK 293 cell lines and rat atrial myocytes were measured by the standard whole-cell patch-clamp technique using a standard pipette and bath solution with an EPC-10 amplifier and Pulse software (HEKA, Lambrecht, Germany). A 3M KCl-agar salt bridge was used as the reference electrode. The current signal was sampled at 5 kHz, recorded and stored in the hard disk of an IBM compatible computer. All experiments were conducted at room temperature (22-23° C.). […]
smiles,measurement,setting,value
COc1ccc(-c2cc(=O)c3c(O)cc(OP(=O)(O)O)cc3o2)cc1 [Prodrug A],concentrations of acacetin at different time-points after prodrug administration,[1],can reach therapeutic concentrations
same,effect on IKACh,IKACh,no inhibitory effect
